Data set [1] in a line: Metabolic stability in rat hepatocytes assessed as parent compound remaining incubated for 1 hr by LC-MS/MS. It is filed as ADME, cell-based, Hepatocyte. To be noted: read-out: Stability.
Data set [2] is described as follows: Chemical stability of the compound in acetate buffer at pH 4.0 assessed as residual rate incubated for 2 weeks by HPLC analysis. It is filed as physicochemical. To be noted: read-out: Stability.
Data set [3] in a line: Clearance in fasted Sprague-Dawley rat at 0.4 mg/kg, iv by LC-MS/MS analysis. It is filed as ADME, organism-based. To be noted: in vivo.
A short description of data set [4]: Volume of distribution at steady state in fasted Sprague-Dawley rat at 0.4 mg/kg, iv by LC-MS/MS analysis. The conditions noted are these: in vivo, read-out: Vdss. It is filed as ADME, organism-based.
Data set [5] in a line: Half life in fasted Sprague-Dawley rat at 0.4 mg/kg, iv by LC-MS/MS analysis. Format: ADME, organism-based. To be noted: in vivo.
Data set [6] has as its target 72 kDa type IV collagenase (Homo sapiens, UniProt P08253).
Another data set concerns the target Collagenase 3 (Homo sapiens, UniProt P45452).
Data set [7] is described as follows: physchem. To be noted: phosphate buffer, pH 7.4.
A short description of data set [8]: physchem. To be noted: phosphate buffer, pH 9.
Another data set concerns the target T1, Matrilysin (Homo sapiens, UniProt P09237).
T1 sequence (P09237 whole entry): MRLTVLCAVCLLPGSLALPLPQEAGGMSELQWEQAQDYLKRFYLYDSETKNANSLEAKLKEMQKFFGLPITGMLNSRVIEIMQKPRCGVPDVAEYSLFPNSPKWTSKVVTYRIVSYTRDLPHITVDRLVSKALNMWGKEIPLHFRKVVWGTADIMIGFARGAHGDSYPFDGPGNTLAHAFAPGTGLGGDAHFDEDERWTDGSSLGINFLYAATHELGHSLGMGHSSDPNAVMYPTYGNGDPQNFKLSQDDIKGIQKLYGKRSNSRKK

In data set [9] the target is Matrix metalloproteinase-14 (Homo sapiens, UniProt P50281). Kind of data set: Inhibition of recombinant human MMP14 using MOCAc-Lys-Pro-Leu-Gly-Leu-A2pr(Dnp)-Ala-Arg-NH2 as substrate preincubated for 15 mins followed by substrate addition by fluroscence based assay.
In data set [10] the target is Macrophage metalloelastase (Homo sapiens, UniProt P39900).

Non-standard residues stand in square brackets, D forms with d. Residues, ends and D or L forms follow the SMILES beside them. *: point of attachment. Benzoyl(4-OPh(4-CONH2)) = NC(=O)c1ccc(Oc2ccc(C(=O)*)cc2)cc1; NMeE = CN[C@@H](CCC(=O)O)C(=O)O; β3hP = O=C(O)C[C@@H]1CCCN1; Dab = NCC[C@H](N)C(=O)O; Ava = NCCCCC(=O)O

72 kDa type IV collagenase, sequence (P08253 whole entry): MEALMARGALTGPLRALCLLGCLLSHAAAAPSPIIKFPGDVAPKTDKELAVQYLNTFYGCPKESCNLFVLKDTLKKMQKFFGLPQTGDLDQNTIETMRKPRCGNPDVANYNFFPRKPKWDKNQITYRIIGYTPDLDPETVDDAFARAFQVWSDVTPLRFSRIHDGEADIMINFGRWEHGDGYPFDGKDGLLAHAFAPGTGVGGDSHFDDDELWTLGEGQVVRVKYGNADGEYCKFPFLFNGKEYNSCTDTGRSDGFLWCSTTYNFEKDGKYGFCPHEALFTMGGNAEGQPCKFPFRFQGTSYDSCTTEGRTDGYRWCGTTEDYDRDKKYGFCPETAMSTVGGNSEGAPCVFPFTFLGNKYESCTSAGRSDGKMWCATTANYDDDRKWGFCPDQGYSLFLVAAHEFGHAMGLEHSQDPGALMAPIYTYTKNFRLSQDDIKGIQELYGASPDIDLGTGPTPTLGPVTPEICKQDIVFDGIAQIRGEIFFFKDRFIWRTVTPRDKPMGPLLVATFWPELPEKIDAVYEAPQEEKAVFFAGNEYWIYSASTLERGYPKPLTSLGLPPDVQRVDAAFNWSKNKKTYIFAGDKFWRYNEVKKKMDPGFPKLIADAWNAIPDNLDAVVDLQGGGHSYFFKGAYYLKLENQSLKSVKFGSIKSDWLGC
Macrophage metalloelastase, sequence (P39900 whole entry): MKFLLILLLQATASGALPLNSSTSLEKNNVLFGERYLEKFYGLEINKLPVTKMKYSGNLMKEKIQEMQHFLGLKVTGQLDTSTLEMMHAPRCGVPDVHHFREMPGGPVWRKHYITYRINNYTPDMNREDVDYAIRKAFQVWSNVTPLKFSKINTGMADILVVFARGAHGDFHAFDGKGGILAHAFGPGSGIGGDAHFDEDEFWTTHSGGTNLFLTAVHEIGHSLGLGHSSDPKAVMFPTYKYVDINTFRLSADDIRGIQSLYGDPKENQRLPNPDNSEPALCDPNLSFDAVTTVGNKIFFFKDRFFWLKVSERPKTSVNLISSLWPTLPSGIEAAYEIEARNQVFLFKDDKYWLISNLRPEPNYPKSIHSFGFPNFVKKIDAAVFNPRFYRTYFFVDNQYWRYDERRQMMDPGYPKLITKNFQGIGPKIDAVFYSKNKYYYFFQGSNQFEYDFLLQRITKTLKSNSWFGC

As usually defined, the clearance is the rate of elimination divided by the concentration. As usually defined, the half-life is how long it takes for the measured level to halve. Lower therefore signals fast loss. The IC50 is the concentration that gives 50% inhibition. Turning to `CC(C)C[C@H](NC(=O)[C@H](CCN)NC(=O)[C@H](CC(=O)O)NC(=O)[C@H](CC(N)=O)NC(=O)CCCCNC(=O)c1ccc(Oc2ccc(C(N)=O)cc2)cc1)C(=O)N(C)[C@@H](CCC(=O)O)C(=O)N1CCC[C@H]1CC(N)=O` ({Benzoyl(4-OPh(4-CONH2))-Ava}-ND[Dab]L[NMeE][β3hP]-NH2), in data set [1], the remaining at 1 h, 1 µM turned out to be 101%. The remaining at 336 h in data set [2] came to 95.8%; in the data set “physchem [7]”, 89.4%; in “physchem [8]”, 78%. In data set [3], this compound showed a clearance of 0.718 L/h/kg. Further, the Vd in [4] came out at 0.267 L/kg. The compound further registered a half-life in [5] of 16 min. The IC50 in data set [6] worked out at 0.051 nM; against Collagenase 3, 57 nM.

Turning to `CNC(=O)[C@H](Cc1c[nH]c2ccccc12)NC(=O)[C@@H](CC(=O)NO)CC(C)C` [ILOMASTAT], the half-inhibitory concentration (IC50) at Matrilysin amounted to 5.1 nM; in data set [9] it was 1.1 nM; in data set [10], 0.46 nM; against Collagenase 3, 0.28 nM.
